Converted amounts (≈) assume the structure as drawn. Read-outs that look alike come from different tables or passages of the source.
What was measured:
[1] = test system: E. coli MC1061; test: MIC determination; assay type: cell-based; conditions: Escherichia coli; Table 5; Mueller-Hinton medium; D = E. coli MC1061; read-out: MIC strain D
[2] = test system: S. enterica ATCC 14028; test: MIC determination; assay type: cell-based; conditions: Salmonella enterica, ATCC14028
[3] = test system: K. pneumoniae ATCC 27736; test: MIC determination; assay type: cell-based; conditions: Klebsiella pneumoniae, ATCC27736
[4] = test system: Ab ATCC 19606 (strain I); test: MIC determination (double dilution, Mueller-Hinton broth); assay type: cell-based, Acinetobacter baumannii; conditions: Acinetobacter baumannii, ATCC19606
Protocol: All bacterial strains listed above were stored at −80° C. All strains were streaked on Mueller-Hinton (MH) plates and allowed to grow at 37° C. overnight. […] The resulting culture was diluted 1:1000 and added to the prepared serially doubly diluted compound solutions in 96-well plates. For M. smegmatis, a 1:100 dilution of the bacteria was done in MH. All MIC values were determined using 96-well plates with low evaporation seals at least in duplicate. For each row, one well was reserved for sterile control (which consisted of 200 μL of MH medium) and another well was reserved for growth control (which consisted of 100 μL of MH medium seeded with 100 μL of bacterial culture).
(§1) Minimum inhibitory concentrations (MIC) of all compounds from the series were measured in liquid cultures of different Ab strains by a double-dilution method in Mueller-Hinton broth. Initially, the activity of all 46 compounds against Ab ATCC 19606 (a control strain) and Ab ATCC BAA1605 (a multidrug-resistant strain) (Table 1; data shown for 27 representative compounds) was measured.

[5] = test system: all 43 strains of A. baumannii (41 CDC strains and 2 ATCC strains); test: MIC value statistics for all A. baumannii strains; assay type: cell-based, Acinetobacter baumannii; conditions: of 43 A. baumannii strains
Protocol: All bacterial strains listed above were stored at −80° C. All strains were streaked on Mueller-Hinton (MH) plates and allowed to grow at 37° C. overnight. Enough colonies were scraped from the plate and suspended in MH broth with vortexing to reach an attenuance at 600 nm (OD600) of ˜0.5. The resulting culture was diluted 1:1000 and added to the prepared serially doubly diluted compound solutions in 96-well plates. […]. For each row, one well was reserved for sterile control (which consisted of 200 μL of MH medium) and another well was reserved for growth control (which consisted of 100 μL of MH medium seeded with 100 μL of bacterial culture).
Having established that the observed activity is selective to A. baumannii, all synthesized compounds were tested against a panel of antibiotic resistant A. baumannii from the Antimicrobial Resistant (AR) Isolate Bank from the CDC along with strains I and J (Table Si). […]. Based on this statistical analysis, the best compound is 5e followed closely by 3e.

[6] = test system: Y. pestis CO92; test: microbe, parasite or virus in culture; assay type: cell-based; conditions: Yersinia pestis, CO92, read-out: MIC Y. pestis CO92
[7] = test system: E. cloacae ATCC 13047; test: MIC determination; assay type: cell-based; conditions: Enterobacter cloacae, ATCC13047
[8] = test system: S. epidermidis ATCC 12228; test: MIC determination; assay type: cell-based; conditions: Staphylococcus epidermidis, ATCC12228
[9] = test system: B. anthracis Sterne F32; test: microbe, parasite or virus in culture; assay type: cell-based; conditions: Bacillus anthracis
[10] = test system: Ab ATCC BAA1605 (strain J, multidrug-resistant); test: MIC determination; assay type: cell-based; conditions: Acinetobacter baumannii
Protocol: All bacterial strains listed above were stored at −80° C. All strains were streaked on Mueller-Hinton (MH) plates and allowed to grow at 37° C. overnight. Enough colonies were scraped from the plate and suspended in MH broth with vortexing to reach an attenuance at 600 nm (OD600) of ˜0.5. The resulting culture was diluted 1:1000 and added to the prepared serially doubly diluted compound solutions in 96-well plates. For M. smegmatis, a 1:100 dilution of the bacteria was done in MH. All MIC values were determined using 96-well plates with low evaporation seals at least in duplicate. For each row, one well was reserved for sterile control (which consisted of 200 μL of MH medium) and another well was reserved for growth control (which consisted of 100 μL of MH medium seeded with 100 μL of bacterial culture).
as §1

[11] = test system: M. smegmatis; test: MIC determination; assay type: cell-based, Mycobacterium smegmatis; conditions: Mycolicibacterium smegmatis; Table 4
[12] = test system: P. aeruginosa ATCC 27853; test: MIC determination; assay type: cell-based; conditions: Pseudomonas aeruginosa, ATCC27853
[13] = test system: S. aureus ATCC 25923; test: MIC determination; assay type: cell-based; conditions: Staphylococcus aureus, ATCC25923
[14] = test system: Gram-negative bacteria; test: MIC determination, panel statement; assay type: cell-based; conditions: moderate activity
[15] = test system: K. pneumoniae ATCC BAA 1705; test: MIC determination; assay type: cell-based; conditions: Klebsiella pneumoniae, BAA1705; Table 3
[16] = test system: E. coli ATCC BAA 2469; test: MIC determination; assay type: cell-based; conditions: Escherichia coli, BAA2469; Table 3
[17] = Table 5, Mueller-Hinton medium, H = S. enterica ATCC 14028, read-out: MIC strain H
[18] = Table 5, Mueller-Hinton medium, F = K. pneumoniae ATCC 27736, read-out: MIC strain F
[19] = Table 1, control strain, read-out: MIC Ab ATCC 19606
[20] = Table 5, Mueller-Hinton medium, I = A. baumannii ATCC 19606, read-out: MIC strain I
[21] = Table 5, Mueller-Hinton medium, E = E. cloacae ATCC 13047, read-out: MIC strain E
[22] = Table 5, Mueller-Hinton medium, C = S. epidermidis ATCC 12228, read-out: MIC strain C
[23] = STERNEF32, read-out: MIC strain A
[24] = Table 1, multidrug-resistant strain, read-out: MIC Ab ATCC BAA 1605
[25] = Table 5, Mueller-Hinton medium, J = A. baumannii BAA1605, read-out: MIC strain J
[26] = Table 5, Mueller-Hinton medium, G = P. aeruginosa ATCC 27853, read-out: MIC strain G
[27] = Table 5, Mueller-Hinton medium, B = S. aureus ATCC 25923, read-out: MIC strain B
[28] = Table 3, read-out: MIC K. pneumoniae ATCC 27736
[29] = Table 3, positive control strain, read-out: MIC A. Baumannii ATCC BAA 1605
[30] = Table 3, read-out: MIC P. aeruginosa ATCC 27853

Structure (SMILES)	MIC [1]	MIC [2, 17]	MIC [3, 18]	MIC [4, 19]	MIC [4, 20]	number of compound/strain combinations with MIC value 0.25 μg/mL [5]	number of compound/strain combinations with MIC value 0.5 μg/mL [5]	number of compound/strain combinations with MIC value 1 μg/mL [5]	number of compound/strain combinations with MIC value ≤0.125 μg/mL [5]	MIC [7, 21]	MIC [8, 22]	MIC [9, 23]	MIC [10, 24]	MIC [10, 25]	MIC [12, 26]	MIC [13, 27]	MIC [14]	number of compound/strain combinations with MIC value 2 μg/mL [5]	further results
O=C(NNc1ccc(Cl)cc1)c1ccccn1 [Compound 2e]	16 µg/mL (≈ 64.6 µM)	64 µg/mL (≈ 258 µM)	64 µg/mL (≈ 258 µM)	0.25 µg/mL (≈ 1.01 µM)	0.25 µg/mL (≈ 1.01 µM)	16	21	1	5	64 µg/mL (≈ 258 µM)	> 64 µg/mL	> 64 µg/mL	0.25 µg/mL (≈ 1.01 µM)	0.25 µg/mL (≈ 1.01 µM)	> 64 µg/mL	> 64 µg/mL			MIC ([2]; Table 4, read-out: MIC S. enterica ATCC 14028): > 16 µg/mL; MIC [6]: 16 µg/mL (≈ 64.6 µM); MIC ([7]; Table 4, read-out: MIC E. cloacae ATCC 13047): > 16 µg/mL; MIC ([8]; Table 4, read-out: MIC S. epidermidis ATCC 12228): > 16 µg/mL; MIC ([9]; STERNEF32, read-out: MIC B. anthracis Sterne F32): > 16 µg/mL; MIC [11]: 4 µg/mL (≈ 16.1 µM); MIC ([13]; Table 4, read-out: MIC S. Aureus ATCC 25923): > 16 µg/mL
O=C(NNc1ccc(Cl)cc1)c1ccccc1 [Compound 10e]	16 µg/mL (≈ 64.9 µM)	64 µg/mL (≈ 259 µM)	16 µg/mL (≈ 64.9 µM)		0.25 µg/mL (≈ 1.01 µM)	23	6	1	13	16 µg/mL (≈ 64.9 µM)	64 µg/mL (≈ 259 µM)	> 64 µg/mL		0.5 µg/mL (≈ 2.03 µM)	> 64 µg/mL	64 µg/mL (≈ 259 µM)	4 to 16 µg/mL (≈ 16.2 to 64.9 µM)		
O=C(NNc1ccc(Cl)cc1)c1ccc(F)cc1F [Compound 1e]	16 µg/mL (≈ 56.6 µM)	> 64 µg/mL	> 64 µg/mL	0.25 µg/mL (≈ 0.884 µM)	0.25 µg/mL (≈ 0.884 µM)	17	12	5	8	16 µg/mL (≈ 56.6 µM)	> 64 µg/mL	> 64 µg/mL	0.25 µg/mL (≈ 0.884 µM)	0.25 µg/mL (≈ 0.884 µM)	> 64 µg/mL	> 64 µg/mL	4 to 16 µg/mL (≈ 14.2 to 56.6 µM)	1	
O=C(NNc1cccc(Cl)c1)c1ccccn1 [Compound 2b]	4 µg/mL (≈ 16.1 µM)	16 µg/mL (≈ 64.6 µM)	16 µg/mL (≈ 64.6 µM)	2 µg/mL (≈ 8.07 µM)	2 µg/mL (≈ 8.07 µM)	13	13	12	2	4 µg/mL (≈ 16.1 µM)	> 64 µg/mL	> 64 µg/mL	< 0.5 µg/mL	1 µg/mL (≈ 4.04 µM)	> 64 µg/mL	> 64 µg/mL	4 to 16 µg/mL (≈ 16.1 to 64.6 µM)	3	MIC [3, 28]: 8 µg/mL (≈ 32.3 µM); MIC [15]: 16 µg/mL (≈ 64.6 µM); MIC [16]: 8 µg/mL (≈ 32.3 µM); MIC [10, 29]: ≤ 0.5 µg/mL; MIC [12, 30]: > 128 µg/mL
COc1cccc(NNC(=O)c2ccccn2)c1 [Compound 2c]				0.5 µg/mL (≈ 2.06 µM)		5	6	28	1				1 µg/mL (≈ 4.11 µM)					3	MIC [3, 28]: > 128 µg/mL; MIC [15]: > 128 µg/mL; MIC [16]: > 128 µg/mL; MIC [10, 29]: 1 µg/mL (≈ 4.11 µM); MIC [12, 30]: > 128 µg/mL
O=C(NNc1ccc(Cl)cc1)c1cccc(F)n1 [Compound 5e]	16 µg/mL (≈ 60.2 µM)	16 µg/mL (≈ 60.2 µM)	16 µg/mL (≈ 60.2 µM)	0.125 µg/mL (≈ 0.47 µM)	≤ 0.125 µg/mL	21	2		20	16 µg/mL (≈ 60.2 µM)	> 64 µg/mL	> 64 µg/mL	0.125 µg/mL (≈ 0.47 µM)	≤ 0.125 µg/mL	> 64 µg/mL	> 64 µg/mL	4 to 16 µg/mL (≈ 15.1 to 60.2 µM)		
O=C(NNc1ccc(Cl)cc1)c1ccco1 [Compound 15e]	16 µg/mL (≈ 67.6 µM)	16 µg/mL (≈ 67.6 µM)	16 µg/mL (≈ 67.6 µM)	0.5 µg/mL (≈ 2.11 µM)	0.5 µg/mL (≈ 2.11 µM)	18	10	2	13	4 µg/mL (≈ 16.9 µM)	64 µg/mL (≈ 270 µM)	> 64 µg/mL	≤ 0.125 µg/mL	≤ 0.125 µg/mL	> 64 µg/mL	64 µg/mL (≈ 270 µM)			
O=C(NNc1ccc(Cl)cc1)c1ccc2ccccc2n1 [Compound 12e]	16 µg/mL (≈ 53.7 µM)	> 64 µg/mL	> 64 µg/mL	0.5 µg/mL (≈ 1.68 µM)	0.5 µg/mL (≈ 1.68 µM)	7	19	17		> 64 µg/mL	> 64 µg/mL	> 64 µg/mL	0.5 µg/mL (≈ 1.68 µM)	0.5 µg/mL (≈ 1.68 µM)	> 64 µg/mL	> 64 µg/mL			
COc1cccc(NNC(=O)c2ccc(F)cn2)c1 [Compound 3c]	> 64 µg/mL	> 64 µg/mL	> 64 µg/mL	0.5 µg/mL (≈ 1.91 µM)	0.5 µg/mL (≈ 1.91 µM)	2	12	23	1	> 64 µg/mL	64 µg/mL (≈ 245 µM)	> 64 µg/mL	0.5 µg/mL (≈ 1.91 µM)	0.5 µg/mL (≈ 1.91 µM)	> 64 µg/mL	> 64 µg/mL		5	

From patent US20260041683A1, “Compounds with Anti-Acinetobacter Baumannii Activity” (University of Kentucky Research Foundation, priority 2022, published 2026)
